# Source: paper PMC11530130, “Peripherally restricted PICK1 inhibitor mPD5 ameliorates pain behaviors in murine inflammatory and neuropathic pain models” (JCI Insight, 2024)
# Where “and” joins values, the source holds several entries; their conditions need not be identical. Equal entries are not always repeated.
# Legend:
# [1] = Size exclusion chromatography (SEC), self-assembly; format: physicochemical; settings: Superdex200 Increase 10/300; independent of initial concentration
# Protocol: SUPPORTING INFORMATION: Method Section.
# Sex as a biological variable.
# All peptides were ordered from WuXI AppTec (Shanghai, China) or TAG-Copenhagen […]
# Protein expression and purification.
# Full length rat PICK1 (pET41) was, as described earlier (1), expressed in BL21-DE3-pLysS and grown at 37 °C, induced at OD600= 0.6 with 1 mM IPTG, and grown for 16 hours at 20 °C.
# Cultures were harvested and re-suspended in 50 mM Tris, 125 mM NaCl, 2 mM DTT (Sigma), 1% Triton X-100 (Sigma), 20 µg/mL DNAse 1 and half a tablet of cOmplete protease inhibitor cocktail (Roche) pr. 1 L culture. The resuspended pellets were frozen at -80 °C for later purification. The lysate was cleared by centrifugation (36,000 x g for 30 min at 4 °C), and the supernatant was incubated with Glutathione-Sepharose 4B beads (GE Healthcare) for two hours at 4 °C under gentle rotation and then centrifuged at 4000 x g for 5 min. The supernatant was removed, and the beads were washed twice in 35 mL 50 mM Tris, 125 mM NaCl, 2 mM DTT, and 0.01% Triton-X100. The beads were transferred to PD-10 Bio-Spin® Chromatography columns (Bio-Rad) and washed with an additional 3 column volumes. Each column was sealed and 0.075 U/µL, Novagen® was added for cleavage O/N at 4 °C under gentle rotation. PICK1 was eluted on ice and concentration was measured on a NanoDrop 3000. […]
# Size Exclusion Chromatography (SEC). […]
# [2] = Small-angle x-ray scattering (SAXS), core-shell micelle model; format: physicochemical
# Protocol: Peripherally restricted PICK1 inhibitor mPD5 ameliorates pain behaviors in murine inflammatory and neuropathic pain models.
# SUPPORTING INFORMATION: Supplemental Table 1+2.
# Supplemental Table 1. SAXS data collection and fitting table.
# Buffer 50 mM Tris, 125 mM NaCl, pH 7.4
# Extinction coefficient 11 000 M-1 cm-1
# Molecular weight 1874 g/mol
# Peptide concentration 0.19 - 9.37 mg/ml
# SAXS data collection details
# Instrument P12, Petra III, DESY [1]
# Absolute calibration Water
# Indirect Fourier Bayersapp.org transformations to obtain
# Data rebin WillItRebin [4] […]
# nmolec-hydrophilic [Å3] 2012 nmolec-hydrophobic [Å3] 377
# Rtotal [Å] 22.6 (corresponding to a hydrophilic shell thickness of Dshell=10.4 Å) […]
# [1] C. E. Blanchet, A. Spilotros, F. Schwemmer, M. A. Graewert, A. Kikhney, C. M. Jeffries, D. Franke, D. Mark, R. Zengerle, F.
# Cipriani, S. Fiedler, M. Roessle, D. I. Svergun, J Appl Crystallogr 2015, 48, 431.
# [2] S. Hansen, Journal of Applied Crystallography 2012, 45, 566.
# [3] S. Hansen, Journal of Applied Crystallography 2014, 47, 1469.
# [4] WillItFit MC Pedersen 2013. […]
# Small Angle X-ray Scattering (SAXS).
# Concentration series of mPD5 ranging from […] to 9.37 mg/mL was prepared in buffer containing 50 mM Tris-HCl (pH 7.4) and 125 mM NaCl. Samples were measured at the P12 SAXS Beamline, PetraIII, DESY, Hamburg Germany (2). Initial data processing including radial averaging and conversion of the data into absolute scaled scattering intensity, I(q), as a function of the scattering vector q, where q= 4π sin(θ)/λ (θ = half scattering angle, λ = x-ray wave length) was done using the standard software, procedures and settings at the beamline (2). The processed scattering data was merged, buffer subtracted, and binned using WillItRebin with a binning factor of 1.02. The modelling of the SAXS data was performed using a molecular constrained core-shell model for polydisperse spherical micelles. In brief, it was assumed that the peptide aggregated into polydisperse spherical micelles. Here, the hydrophobic tails form the core, and these are surrounded by the hydrophilic part (the shell) in a spherical micelle. For the modelling, total scattering lengths of 2.26e-10 cm and 2.96e-11 cm were used for the headgroups and tail, respectively. These were calculated by multiplying the […]
# electrons) by the scattering length of the electron which is just the classical electron radium of 2.82 fm. For the scattering length density calculations, it was assumed that the molecular volume of the C13 alkyl chain,nmolec-hydrophobic, was 377 Å3 as estimated by Tanfords empirical formula (V = 27.4 + 26.9n!) where nC denotes the number of carbons. i.e. 13 in this case (3).
# The hydrophilic headgroup,nmolec-hydrophilic, was as a first estimate assumed to have a mass density corresponding to that of a soluble protein (i.e. 1.35 g/cm3), this yielded a molecular volume of 2078 Å3. This value was then taken as a free parameter in the fits and refined to a molecular volume of ~2010 Å3 corresponding to a mass density of 1.39 g/cm3 and with very little variation over the fits to the different sample concentrations. Excess scattering length densities of the core and shell of the micelle were then calculated in relation to the scattering length density of water (9.4e10 1/cm2). Using this molecular constrained model, the volumes of the core and of the shell were coupled internally through the fitted aggregation number, Nagg and the implicit […]
# The relative polydispersity, srelative was described by a Gauss function of Nagg. The Gauss was truncated at ±3s. Through the fits, this value is refined to srelative values of the aggregation number at ~30% for the highest concentrations to up to 50% for the lowest concentrations. Note, however, that this variation in the particle volume translates to about 10%-15% variation of the particle radius. A full overview of the resulting fit-parameters is provided in Supplemental Table S1. As usual a small surface roughness (typical at the order of 2Å) and a small constant background were also […]
# [3] = SAXS pair-distance distribution p(r)
# [4] = spherical core-shell model fit, average
smiles,measurement,setting,value
"CCCCCCCCCCCCCC(=O)N(CCOCCOCCC(=O)N[C@@H](Cc1c[nH]cn1)C(=O)N[C@@H](Cc1c[nH]c2ccccc12)C(=O)N[C@@H](CC(C)C)C(=O)N[C@@H](CCCCN)C(=O)N[C@H](C(=O)O)C(C)C)CCOCCOCCC(=O)N[C@@H](Cc1c[nH]cn1)C(=O)N[C@@H](Cc1c[nH]c2ccccc12)C(=O)N[C@@H](CC(C)C)C(=O)N[C@@H](CCCCN)C(=O)N[C@H](C(=O)O)C(C)C [mPD5, myristoyl-NPEG4-(HWLKV)2]",SEC elution volume,[1],approximately 14.2 mL
same,Dmax,[2]; [3],approximately 50 Å
same,radius of gyration (Rg),[2]; [3],approximately 30 Å
same,"Nagg, core shell model fit of single samples","[2]; five samples of the series 0.19 - 9.37 mg/ml, concentration of each column not given",18.7 and 21.5 and 22.2 and 21.0 and 19.0
same,hydrophobic core radius (Rcore),[2]; [4],12.2 Å
same,shell thickness (Dshell),[2]; [4],10.4 Å
same,total radius (Rtotal),[2]; [4],22.6 Å
